This note sets out measurements from patent US10730874B2 (Shire Human Genetic Therapies, Inc., priority 2018, dated 2020).

A value given as a limit tells only on which side of the number the result lay.

human activated kallikrein enzyme (plasma kallikrein), sequence (P03952 391-638): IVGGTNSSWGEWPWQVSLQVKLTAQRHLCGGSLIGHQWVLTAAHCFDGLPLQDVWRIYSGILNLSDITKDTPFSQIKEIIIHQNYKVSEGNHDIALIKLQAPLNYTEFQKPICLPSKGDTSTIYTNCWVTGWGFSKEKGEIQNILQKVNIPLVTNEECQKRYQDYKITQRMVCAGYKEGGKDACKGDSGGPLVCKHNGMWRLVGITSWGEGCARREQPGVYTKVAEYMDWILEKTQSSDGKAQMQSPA
human activated kallikrein enzyme (plasma kallikrein), sequence (P03952 20-390 partner): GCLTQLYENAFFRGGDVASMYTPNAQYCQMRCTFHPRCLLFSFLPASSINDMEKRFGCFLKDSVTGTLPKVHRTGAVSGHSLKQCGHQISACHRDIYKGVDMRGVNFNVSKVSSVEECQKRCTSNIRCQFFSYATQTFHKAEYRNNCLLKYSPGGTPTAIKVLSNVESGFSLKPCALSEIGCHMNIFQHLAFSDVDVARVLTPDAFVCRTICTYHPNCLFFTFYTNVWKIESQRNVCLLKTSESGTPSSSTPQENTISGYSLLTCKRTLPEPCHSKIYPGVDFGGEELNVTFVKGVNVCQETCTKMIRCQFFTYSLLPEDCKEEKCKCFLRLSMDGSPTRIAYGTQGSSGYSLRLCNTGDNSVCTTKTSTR

The target in this assay is human activated kallikrein enzyme (plasma kallikrein) (Homo sapiens (Human), UniProt P03952). The experiment in a line: Inhibition of human activated plasma kallikrein, fluorogenic peptide substrate assay, 500 pM enzyme format. In kind it is biochemical. The conditions noted are these: 500 pM activated kallikrein enzyme, 300 uM Pro-Phe-Arg-7-amido-4-methylcoumarin substrate, 30 min preincubation, 10 min at RT; read-out: Primary Dose Response Assay: Average EC50. Put shortly:
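Buffer 20 mM Tris pH 7.5, EDTA, NaCl, PEG-400, Triton X-100; 300 uM Pro-Phe-Arg-AMC; enzyme–inhibitor preincubation 30 min RT. Format one: 500 pM kallikrein, 10 min RT reaction; format two: 5 pM kallikrein, 18 h RT reaction. Fluorescence read at 460 nm (380 nm excitation).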
As usually defined, the EC50 is the concentration that produces a half-maximal response. Turning to `O=C(NCc1ncn2ccc(Cl)c(F)c12)c1cn(Cc2cc3cc(C4CC4)ccc3[nH]2)nn1` [Example I-232, N-((7-chloro-8-fluoroimidazo[1,5-a]pyridin-1-yl)methyl)-1-((5-cyclopropyl-1H-indol-2-yl)methyl)-1H-1,2,3-triazole-4-carboxamide], the EC50 is 10 to 100 nM.

Take `O=C(NCc1ncn2ccc(Cl)cc12)c1cnn(Cc2cn3cc(C4CC4)cc(N4CCCC4=O)c3n2)c1` [Example I-114, N-((7-chloroimidazo[1,5-a]pyridin-1-yl)methyl)-1-((6-cyclopropyl-8-(2-oxopyrrolidin-1-yl)imidazo[1,2-a]pyridin-2-yl)methyl)-1H-pyrazole-4-carboxamide]: the EC50 was less than 1 nM.

With `CCOC(=O)c1nc(C(=O)NCc2ncn3ccc(Cl)c(F)c23)cn1Cc1cn2cc(C3CC3)ccc2n1` [Example I-260], the half-maximal effective concentration (EC50) is less than 1 nM.

As to `N#Cc1cccc2nc(Cn3cc(C(=O)NCc4ncn5ccc(Cl)cc45)cn3)cn12` [Example I-54, N-((7-chloroimidazo[1,5-a]pyridin-1-yl)methyl)-1-((5-cyanoimidazo[1,2-a]pyridin-2-yl)methyl)-1H-pyrazole-4-carboxamide], the EC50 lay in the range of 10 to 100 nM.

As to `Cc1cc2nc(Cn3cc(C(=O)NCc4ncn5ccc(Cl)cc45)cn3)cn2cc1Br` [Example I-28, 1-((6-bromo-7-methylimidazo[1,2-a]pyridin-2-yl)methyl)-N-((7-chloroimidazo[1,5-a]pyridin-1-yl)methyl)-1H-pyrazole-4-carboxamide], the half-maximal effective concentration (EC50) lay within 1 to 10 nM.

On to `C#Cc1cc(C2CC2)cn2cc(Cn3cc(C(=O)NCc4ncn5ccc(Cl)c(F)c45)nn3)nc12` [Example I-228, N-((7-chloro-8-fluoroimidazo[1,5-a]pyridin-1-yl)methyl)-1-((6-cyclopropyl-8-ethynylimidazo[1,2-a]pyridin-2-yl)methyl)-1H-1,2,3-triazole-4-carboxamide], for which the concentration for a half-maximal effect (EC50) was less than 1 nM.

On to `O=C(NCc1ncn2ccc(Cl)c(F)c12)c1cn(Cc2cn3cc(C4CC4)cc(Cn4cccn4)c3n2)nn1` [Example I-201, 1-((8-((1H-pyrazol-1-yl)methyl)-6-cyclopropylimidazo[1,2-a]pyridin-2-yl)methyl)-N-((7-chloro-8-fluoroimidazo[1,5-a]pyridin-1-yl)methyl)-1H-1,2,3-triazole-4-carboxamide], for which the EC50 was less than 1 nM.

`O=C(NCc1ncn2ccc(Cl)cc12)c1nnc(Cc2cn3cc(C4CC4)ccc3n2)[nH]1` [Example I-161, N-((7-chloroimidazo[1,5-a]pyridin-1-yl)methyl)-5-((6-cyclopropylimidazo[1,2-a]pyridin-2-yl)methyl)-4H-1,2,4-triazole-3-carboxamide]: the EC50 was 1 to 10 nM.

As for `CCOC(=O)C1(c2cccn3cc(Cn4cc(C(=O)NCc5ncn6ccc(Cl)cc56)cn4)nc23)CC1` [Example I-115, ethyl 1-(2-((4-(((7-chloroimidazo[1,5-a]pyridin-1-yl)methyl)carbamoyl)-1H-pyrazol-1-yl)methyl)imidazo[1,2-a]pyridin-8-yl)cyclopropane-1-carboxylate], the EC50 was less than 1 nM.

As to `O=C(NCc1ncn2ccc(Cl)c(F)c12)c1cn(Cc2cn3cc(C4CC4)cc(C(O)C4COC4)c3n2)nn1` (centres unmarked) [Example I-279, N-((7-chloro-8-fluoroimidazo[1,5-a]pyridin-1-yl)methyl)-1-((6-cyclopropyl-8-(hydroxy(oxetan-3-yl)methyl)imidazo[1,2-a]pyridin-2-yl)methyl)-1H-1,2,3-triazole-4-carboxamide], the EC50 is less than 1 nM.

Consider `O=C(NCc1ncn2ccc(Cl)c(F)c12)c1cn(Cc2cn3nc(C4CC4)ccc3n2)cn1` [Example I-288, N-((7-chloro-8-fluoroimidazo[1,5-a]pyridin-1-yl)methyl)-1-((6-cyclopropylimidazo[1,2-b]pyridazin-2-yl)methyl)-1H-imidazole-4-carboxamide], for which the EC50 was less than 1 nM.

As to `Cc1cc2nc(Cn3cc(C(=O)NCc4ncn5ccc(Cl)cc45)cn3)cn2cc1C1CC1` [Example I-16, N-((7-chloroimidazo[1,5-a]pyridin-1-yl)methyl)-1-((6-cyclopropyl-7-methylimidazo[1,2-a]pyridin-2-yl)methyl)-1H-pyrazole-4-carboxamide], the 50% effective concentration (EC50) lay in the range of 1 to 10 nM.

Turning to `CC(NC(=O)c1cn(Cc2cn3cc(C4CC4)cc(C(O)C4COC4)c3n2)nn1)c1ncn2ccc(Cl)c(F)c12` (centres unmarked) [Example I-280, N-(1-(7-chloro-8-fluoroimidazo[1,5-a]pyridin-1-yl)ethyl)-1-((6-cyclopropyl-8-(hydroxy(oxetan-3-yl)methyl)imidazo[1,2-a]pyridin-2-yl)methyl)-1H-1,2,3-triazole-4-carboxamide], the 50% effective concentration (EC50) is 10 to 100 nM.

`CCn1ncn(-c2cc(C3CC3)cn3cc(Cn4cc(C(=O)NCc5ncn6ccc(Cl)c(F)c56)nn4)nc23)c(=O)c1=O` [Example I-242, N-((7-chloro-8-fluoroimidazo[1,5-a]pyridin-1-yl)methyl)-1-((6-cyclopropyl-8-(1-ethyl-5,6-dioxo-5,6-dihydro-1,2,4-triazin-4(1H)-yl)imidazo[1,2-a]pyridin-2-yl)methyl)-1H-1,2,3-triazole-4-carboxamide]: the half-maximal effective concentration (EC50) was less than 1 nM.

`COC(=O)Cc1cc(C2CC2)cn2cc(Cn3cc(C(=O)NCc4ncn5ccc(Cl)cc45)cn3)nc12` [Example I-81, methyl 2-(2-((4-(((7-chloroimidazo[1,5-a]pyridin-1-yl)methyl)carbamoyl)-1H-pyrazol-1-yl)methyl)-6-cyclopropylimidazo[1,2-a]pyridin-8-yl)acetate]: the EC50 was less than 1 nM.

Turning to `O=C(NCc1ncn2ccc(Cl)c(F)c12)c1cn(Cc2cn3cc(C4CC4)cc(C4(F)COC4)c3n2)nn1` [Example I-167, N-((7-chloro-8-fluoroimidazo[1,5-a]pyridin-1-yl)methyl)-1-((6-cyclopropyl-8-(3-fluorooxetan-3-yl)imidazo[1,2-a]pyridin-2-yl)methyl)-1H-1,2,3-triazole-4-carboxamide], the concentration for a half-maximal effect (EC50) was less than 1 nM.

In the case of `COCc1c(C(=O)NCc2ncn3ccc(Cl)cc23)cnn1Cc1cn2cc(C3CC3)ccc2n1` [Example I-32, N-((7-chloroimidazo[1,5-a]pyridin-1-yl)methyl)-1-((6-cyclopropylimidazo[1,2-a]pyridin-2-yl)methyl)-5-(methoxymethyl)-1H-pyrazole-4-carboxamide], the 50% effective concentration (EC50) was 10 to 100 nM.

For `COC(=O)CCc1c(C(=O)NCc2ncn3ccc(Cl)cc23)cnn1Cc1cn2cc(C3CC3)ccc2n1` [Example I-82, methyl 3-(4-(((7-chloroimidazo[1,5-a]pyridin-1-yl)methyl)carbamoyl)-1-((6-cyclopropylimidazo[1,2-a]pyridin-2-yl)methyl)-1H-pyrazol-5-yl)propanoate], the EC50 was 10 to 100 nM.

For `O=C(NCc1ncn2ccc(Br)cc12)c1cnn(Cc2cn3cc(C4CC4)ccc3n2)c1` [Example I-5, N-((7-bromoimidazo[1,5-a]pyridin-1-yl)methyl)-1-((6-cyclopropylimidazo[1,2-a]pyridin-2-yl)methyl)-1H-pyrazole-4-carboxamide], the concentration for a half-maximal effect (EC50) is less than 1 nM.

For `CC(C)(Oc1cc(C2CC2)cn2cc(Cn3cc(C(=O)NCc4ncn5ccc(Cl)c(F)c45)nn3)nc12)C(=O)O` [Example I-212, 2-((2-((4-(((7-chloro-8-fluoroimidazo[1,5-a]pyridin-1-yl)methyl)carbamoyl)-1H-1,2,3-triazol-1-yl)methyl)-6-cyclopropylimidazo[1,2-a]pyridin-8-yl)oxy)-2-methylpropanoic acid], the EC50 is less than 1 nM.

Take `O=C(NCc1ncn2ccc(Cl)cc12)c1cnn(Cc2cn3cc(C4CC4)cc(CO)c3n2)c1` [Example I-75, N-((7-chloroimidazo[1,5-a]pyridin-1-yl)methyl)-1-((6-cyclopropyl-8-(hydroxymethyl)imidazo[1,2-a]pyridin-2-yl)methyl)-1H-pyrazole-4-carboxamide]: the concentration giving a half-maximal response (EC50) was less than 1 nM.

As for `Cc1nnc(C)n1-c1cc(C2CC2)cn2cc(Cn3cc(C(=O)NCc4ncn5ccc(Cl)c(F)c45)nn3)nc12` [Example I-253, N-((7-chloro-8-fluoroimidazo[1,5-a]pyridin-1-yl)methyl)-1-((6-cyclopropyl-8-(3,5-dimethyl-4H-1,2,4-triazol-4-yl)imidazo[1,2-a]pyridin-2-yl)methyl)-1H-1,2,3-triazole-4-carboxamide], the EC50 is less than 1 nM.

Take `O=C(NCc1ncn2ccc(Cl)cc12)c1cnn(Cc2cn3cc(C4CC4)ccc3n2)c1` [Example I-2, N-((7-chloroimidazo[1,5-a]pyridin-1-yl)methyl)-1-((6-cyclopropylimidazo[1,2-a]pyridin-2-yl)methyl)-1H-pyrazole-4-carboxamide]: the EC50 is less than 1 nM.

`O=C(NCc1ncn2ccc(Cl)c(F)c12)c1cn(Cc2nc3cc(C4CC4)ccc3[nH]2)nn1` [Example I-236, N-((7-chloro-8-fluoroimidazo[1,5-a]pyridin-1-yl)methyl)-1-((5-cyclopropyl-1H-benzo[d]imidazol-2-yl)methyl)-1H-1,2,3-triazole-4-carboxamide]: the EC50 was 10 to 100 nM.

Regarding `O=C(NCc1ncn2ccc(Cl)c(F)c12)c1cn(Cc2cn3cc(C4CC4)cc(C4CCOC4=O)c3n2)nn1` (centres unmarked) [Example I-199, N-((7-chloro-8-fluoroimidazo[1,5-a]pyridin-1-yl)methyl)-1-((6-cyclopropyl-8-(2-oxotetrahydrofuran-3-yl)imidazo[1,2-a]pyridin-2-yl)methyl)-1H-1,2,3-triazole-4-carboxamide], the EC50 was less than 1 nM.

Regarding `O=C(NCc1ncn2ccc(Br)cc12)c1cnn(Cc2cn3cc(C4CC4)c(F)cc3n2)c1` [Example I-20, N-((7-bromoimidazo[1,5-a]pyridin-1-yl)methyl)-1-((6-cyclopropyl-7-fluoroimidazo[1,2-a]pyridin-2-yl)methyl)-1H-pyrazole-4-carboxamide], the concentration giving a half-maximal response (EC50) lay within 1 to 10 nM.
